What is called melting point is the temperature of the solid-liquid transition.

As to `COc1ccc(COC(=O)Nc2ccc3c(c2)CCC(C(=O)NO)O3)cc1` (centres unmarked) [Compound 14j, 4-Methoxybenzyl (2-(hydroxycarbamoyl)chroman-6-yl)carbamate], the melting point is 149 to 151 °C.
In turn, `O=C(Nc1ccc2c(c1)CCC(C(=O)NO)O2)OCc1ccccc1Cl` (centres unmarked) [Compound 14k, 2-Chlorobenzyl (2-(hydroxycarbamoyl)chroman-6-yl)carbamate] displayed a melting point of 188 to 189 °C.
With `O=C(NO)C1CCc2cc(NS(=O)(=O)c3cc(Cl)cc(Cl)c3)ccc2O1` (centres unmarked) [Compound 14n, 6-((3,5-Dichlorophenyl)sulfonamido)-N-hydroxychromane-2-carboxamide] the figure was 156 to 170 °C; with `CC(C)NC(=O)ONC(=O)C1CCc2cc(NC(=O)c3ccc(-c4ccccc4)cc3)ccc2O1` (centres unmarked) [Compound 15, 6-([1,1′-Biphenyl]-4-carboxamido)-N-((isopropylcarbamoyl)oxy)chromane-2-carboxamide], 200 °C (dec.).
With `C#Cc1ccc2c(c1)CCC(C(=O)NO)O2` (centres unmarked) [Compound 19, 6-ethynyl-N-hydroxychromane-2-carboxamide] the figure was 161 to 163 °C.
With `O=C(NO)C1CCc2cc(C#CCOc3ccc(F)cc3)ccc2O1` (centres unmarked) [Compound 25, 6-(3-(4-Fluorophenoxy)prop-1-yn-1-yl)-N-hydroxychromane-2-carboxamide] the figure was 149 to 151 °C.
`O=C(NO)C1CCc2cc(CCCOc3ccc(F)cc3)ccc2O1` (centres unmarked) [Compound 31, 6-(3-(4-Fluorophenoxy)propyl)-N-hydroxychromane-2-carboxamide] came in with a melting point of 145 to 147 °C.
With `O=C(NO)C1CCc2cc(C#CCOC(=O)N3CCc4ccccc4C3)ccc2O1` (centres unmarked) [Compound 36, 3-(2-(Hydroxycarbamoyl)chroman-6-yl)prop-2-yn-1-yl 3,4-dihydroisoquinoline-2(1H)-carboxylate] the figure was 90 to 92 °C; with `O=C(NO)C1CCc2cc(CCCOC(=O)N3CCc4ccccc4C3)ccc2O1` (centres unmarked) [Compound 40, 3-(2-(Hydroxycarbamoyl)chroman-6-yl)propyl 3,4-dihydroisoquinoline-2(1H)-carboxylate], 82 to 84 °C.
With `O=C(NO)C1CCc2cc(-c3ccc(-c4ccccc4)cc3)ccc2O1` (centres unmarked) [Compound 44a, 6-([1,1′-Biphenyl]-4-yl)-N-hydroxychromane-2-carboxamide] the figure was 218 to 219 °C; with `O=C(NO)C1CCc2cc(-c3ccc(F)cc3)ccc2O1` (centres unmarked) [Compound 44b, 6-(4-Fluorophenyl)-N-hydroxychromane-2-carboxamide], 177 to 179 °C; with `O=C(NO)C1CCc2cc(-c3ccc(Cl)c(Cl)c3)ccc2O1` (centres unmarked) [Compound 44c, 6-(3,4-Dichlorophenyl)-N-hydroxychromane-2-carboxamide], 89 to 91 °C.
Next, `O=C(NO)C1CCc2ccc(OCc3ccc(C(F)(F)F)cc3)cc2O1` (centres unmarked) [Compound 50a, N-Hydroxy-7-((4-(trifluoromethyl)benzyl)oxy)chromane-2-carboxamide]: 148 to 151 °C; `O=C(NO)C1CCc2ccc(OCCOc3ccc(F)cc3)cc2O1` (centres unmarked) [Compound 50b, 7-(2-(4-Fluorophenoxy)ethoxy)-N-hydroxychromane-2-carboxamide]: 144 to 147 °C; `O=C(NO)C1CCc2ccc(OCc3ccccn3)cc2O1` (centres unmarked) [Compound 50c, N-Hydroxy-7-(pyridin-2-ylmethoxy)chromane-2-carboxamide]: 125 to 128 °C.
As to `O=C(NO)[C@@H]1CCc2ccc(OCc3ccccc3Cl)cc2O1` [Compound 50d, (S)-7-((2-Chlorobenzyl)oxy)-N-hydroxychromane-2-carboxamide], the melting point lay in the range of 141 to 147 °C.
Next, `O=C(NO)C1CCc2ccc(O)cc2O1` (centres unmarked) [Compound 55, N,7-Dihydroxychromane-2-carboxamide]: 174 to 176 °C.
With `O=C(NO)C1CCc2ccc(-c3ccc(Cl)c(Cl)c3)cc2O1` (centres unmarked) [Compound 58a, 7-(3,4-Dichlorophenyl)-N-hydroxychromane-2-carboxamide], the melting point was in the range of 167 to 169 °C.
Next, `Cn1ccc2cc(-c3ccc4c(c3)OC(C(=O)NO)CC4)ccc21` (centres unmarked) [Compound 58b, N-Hydroxy-7-(1-methyl-1H-indol-5-yl)chromane-2-carboxamide]: 155 to 158 °C; `COc1ccc(-c2ccc3c(c2)OC(C(=O)NO)CC3)cc1` (centres unmarked) [Compound 58c, N-Hydroxy-7-(4-methoxyphenyl)chromane-2-carboxamide]: 181 to 183 °C.
Consider `CN1CC(C(=O)NO)Oc2ccccc21` (centres unmarked) [Compound 78, N-Hydroxy-4-methyl-3,4-dihydro-2H-benzo[b][1,4]oxazine-2-carboxamide], for which the melting point lay in the range of 118 to 120 °C.
For the compound `O=C(NO)C1CCc2cc(Cl)ccc2O1` (centres unmarked) [Compound 90, 6-Chloro-N-hydroxychromane-2-carboxamide], the melting point was 160 to 162 °C.
Next, `O=C(Nc1cccc2c1O[C@H](C(=O)NO)CC2)OCc1ccccc1Cl` [−11L, 2-Chlorobenzyl (S)-(2-(hydroxycarbamoyl)chroman-8-yl)carbamate]: 176 to 178 °C.

(Values after patent publication US20240051931A1, “HDAC INHIBITORS” (University of Pittsburgh - Of the Commonwealth System of …, priority 2020, published 2024).)
